Source: US10597388B2, “Pyridazinone herbicides” (FMC CORPORATION, priority 2014, dated 2020)

Columns and labels:
Test in all cases: Test C greenhouse herbicide test, pre- and postemergence
Format in all cases: in vivo
[1] = tested on: lambsquarters (Chenopodium album)
In short: (§1)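 Pre- and postemergence greenhouse screen; values are visual control ratings, 0 meaning no effect and 100 complete kill, assigned relative to untreated plants after 13 to 15 d.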

[2] = tested on: galium (catchweed bedstraw, Galium aparine)
In short: as §1

corn (Zea mays) = tested on: corn (Zea mays)
In short: as §1

[3] = tested on: nutsedge, yellow (yellow nutsedge, Cyperus esculentus)
In short: as §1

[4] = tested on: pigweed (Amaranthus retroflexus)
In short: as §1

[5] = tested on: ragweed (common ragweed, Ambrosia elatior)
In short: as §1

[6] = tested on: blackgrass (Alopecurus myosuroides)
In short: as §1

soybean (Glycine max) = tested on: soybean (Glycine max)
In short: as §1

[7] = tested on: ryegrass, Italian (Italian ryegrass, Lolium multiflorum)
In short: as §1

[8] = tested on: barnyardgrass (Echinochloa crus-galli)
In short: as §1

[9] = tested on: wheat (winter wheat, Triticum aestivum)
In short: as §1

[10] = tested on: velvetleaf (Abutilon theophrasti)
In short: as §1

[11] = tested on: crabgrass, large (large crabgrass, Digitaria sanguinalis)
In short: as §1

[12] = tested on: oilseed rape (Brassica napus)
In short: as §1

[13] = tested on: foxtail, giant (giant foxtail, Setaria faberii)
In short: as §1

[14] = Postemergence, 31 g ai/ha, 0 to 100 scale (0 no effect, 100 complete control)
[15] = Postemergence, 125 g ai/ha, scale 0 to 100, 0 is no effect, 100 is complete control
[16] = Postemergence, 250 g ai/ha, scale 0 to 100, 0 no effect, 100 complete control, 13 to 15 d
[17] = Preemergence, 31 g ai/ha, scale 0 to 100, 0 is no effect, 100 is complete control
[18] = Preemergence, 62 g ai/ha, scale 0 to 100, 0 is no effect, 100 is complete control
[19] = Preemergence, 125 g ai/ha, scale 0 to 100, 0 is no effect, 100 is complete control
[20] = Preemergence, 250 g ai/ha, scale 0 to 100, 0 no effect, 100 complete control
[21] = postemergence, 62 g ai/ha, scale 0 to 100, 0 no effect, 100 complete control

Cn1nc(Br)c(O)c(-c2cccc3ccccc23)c1=O [Compound 20]
70: Plant response rating, Ragweed [5, 19]
30: Plant response rating, Soybean (soybean (Glycine max); [19]) | Soybean plant response rating (soybean (Glycine max); [20]) | Plant response rating, Barnyardgrass [8, 15] | Plant response rating, Barnyardgrass [8, 18] | Wheat plant response rating [9, 20] | Plant response rating, Crabgrass, Large [11, 16] | Plant response rating, Foxtail, Giant [13, 18]
60: Ryegrass, Italian plant response rating [7, 21] | Plant response rating, Barnyardgrass [8, 19] | Crabgrass, Large plant response rating [11, 20]
95: Plant response rating, Galium [2, 19] | Galium plant response rating [2, 20] | Plant response rating, Nutsedge, Yellow [3, 16] | Plant response rating, Nutsedge, Yellow [3, 19] | Nutsedge, Yellow plant response rating [3, 20] | Plant response rating, Ragweed [5, 15] | Plant response rating, Ryegrass, Italian [7, 18] | Plant response rating, Ryegrass, Italian [7, 19] | Ryegrass, Italian plant response rating [7, 20]
65: Nutsedge, Yellow plant response rating [3, 21] | Plant response rating, Foxtail, Giant [13, 19]
75: Pigweed plant response rating [4, 14] | Ragweed plant response rating [5, 20] | Plant response rating, Ryegrass, Italian [7, 17]
10: Plant response rating, Corn (corn (Zea mays); [16]) | Plant response rating, Blackgrass [6, 15] | Blackgrass plant response rating [6, 21] | Barnyardgrass plant response rating [8, 21] | Plant response rating, Crabgrass, Large [11, 15] | Plant response rating, Crabgrass, Large [11, 17] | Crabgrass, Large plant response rating [11, 21]
35: Corn plant response rating (corn (Zea mays); [20]) | Plant response rating, Ragweed [5, 17] | Plant response rating, Soybean (soybean (Glycine max); [15]) | Plant response rating, Wheat [9, 19]
40: Plant response rating, Blackgrass [6, 19]
15: Plant response rating, Crabgrass, Large [11, 18] | Plant response rating, Crabgrass, Large [11, 19]
98: Galium plant response rating [2, 14] | Plant response rating, Pigweed [4, 15]
5: Corn plant response rating (corn (Zea mays); [14]) | Plant response rating, Corn (corn (Zea mays); [15]) | Plant response rating, Corn (corn (Zea mays); [19]) | Corn plant response rating (corn (Zea mays); [21]) | Blackgrass plant response rating [6, 14] | Plant response rating, Blackgrass [6, 18] | Barnyardgrass plant response rating [8, 14] | Plant response rating, Barnyardgrass [8, 17] | Crabgrass, Large plant response rating [11, 14] | Plant response rating, Oilseed Rape [12, 15] | Plant response rating, Foxtail, Giant [13, 17]
25: Velvetleaf plant response rating [10, 14] | Velvetleaf plant response rating [10, 21] | Plant response rating, Oilseed Rape [12, 16] | Foxtail, Giant plant response rating [13, 21]
20: Plant response rating, Soybean (soybean (Glycine max); [18]) | Oilseed Rape plant response rating [12, 20]
0: Plant response rating, Corn (corn (Zea mays); [17]) | Plant response rating, Corn (corn (Zea mays); [18]) | Plant response rating, Blackgrass [6, 17] | Soybean plant response rating (soybean (Glycine max); [14]) | Plant response rating, Soybean (soybean (Glycine max); [16]) | Soybean plant response rating (soybean (Glycine max); [21]) | Wheat plant response rating [9, 14] | Plant response rating, Wheat [9, 15] | Plant response rating, Wheat [9, 16] | Plant response rating, Wheat [9, 18] | Wheat plant response rating [9, 21] | Oilseed Rape plant response rating [12, 14] | Plant response rating, Oilseed Rape [12, 17] | Plant response rating, Oilseed Rape [12, 18] | Plant response rating, Oilseed Rape [12, 19] | Oilseed Rape plant response rating [12, 21] | Foxtail, Giant plant response rating [13, 14]
80: Lambsquarters plant response rating [1, 14] | Plant response rating, Lambsquarters [1, 17] | Plant response rating, Nutsedge, Yellow [3, 17] | Ragweed plant response rating [5, 14] | Blackgrass plant response rating [6, 20] | Plant response rating, Ryegrass, Italian [7, 15] | Plant response rating, Foxtail, Giant [13, 16]
85: Plant response rating, Lambsquarters [1, 18] | Plant response rating, Lambsquarters [1, 19] | Lambsquarters plant response rating [1, 21] | Plant response rating, Nutsedge, Yellow [3, 15] | Plant response rating, Nutsedge, Yellow [3, 18] | Ragweed plant response rating [5, 21] | Barnyardgrass plant response rating [8, 20] | Plant response rating, Velvetleaf [10, 15] | Foxtail, Giant plant response rating [13, 20]
100: Plant response rating, Lambsquarters [1, 15] | Plant response rating, Lambsquarters [1, 16] | Plant response rating, Galium [2, 15] | Plant response rating, Galium [2, 16] | Plant response rating, Galium [2, 18] | Galium plant response rating [2, 21] | Plant response rating, Pigweed [4, 16] | Plant response rating, Pigweed [4, 17] | Plant response rating, Pigweed [4, 18] | Plant response rating, Pigweed [4, 19] | Pigweed plant response rating [4, 20] | Plant response rating, Ragweed [5, 16] | Plant response rating, Velvetleaf [10, 16] | Plant response rating, Velvetleaf [10, 19] | Velvetleaf plant response rating [10, 20]
45: Nutsedge, Yellow plant response rating [3, 14] | Plant response rating, Ragweed [5, 18] | Plant response rating, Blackgrass [6, 16] | Plant response rating, Barnyardgrass [8, 16] | Plant response rating, Foxtail, Giant [13, 15]
90: Lambsquarters plant response rating [1, 20] | Plant response rating, Galium [2, 17] | Pigweed plant response rating [4, 21] | Plant response rating, Ryegrass, Italian [7, 16] | Plant response rating, Velvetleaf [10, 18]
55: Ryegrass, Italian plant response rating [7, 14]
